Where two headings read alike, the source gives them in different places.
Columns and labels:
Mino cells = test: Antiproliferative effect, MTS cell viability assay, Mino cells; format: cell-based; details: Homo sapiens, MINO, Mino mantle cell lymphoma cells; read-out: IC50 (anti-proliferation) Mino cells
Description: (§1) Antiproliferative effect of the exemplary compounds was assessed in B-cell malignancy models.
(§2) To assess the effect of the exemplary compounds on cell viability in B-cell malignancy models by degradation of BTK protein, Mino and JeKo-1 cells were treated with varying concentrations of Ibrutinib (0, 0.001, 0.01, 0.1, 1, 10 μM). Under these conditions, cell viability was determined by an MTS assay. Cytotoxicity was assayed by the determination of reduced tetrazolium (formazan) created by metabolically active cells as detected at 490 nm absorbance using a microplate reader (BMG Labtech, Cary, NC, USA).
(§3) The exemplary compounds attenuated the viability of Mino and JeKo-1 cells in a concentration-dependent manner at 72 h post treatment. Results are shown in Table 1 for each exemplary compound.

BTK = BTK (Homo sapiens, UniProt Q06187); test: Degradation of BTK protein in Namalwa cells (Western blot; DC50, Dmax); details: for DC50: cell line not given
JeKo-1 cells = test: Antiproliferative effect, MTS cell viability assay, JeKo-1 cells; format: cell-based; details: Homo sapiens; JeKo-1 mantle cell lymphoma cells; read-out: IC50 (anti-proliferation) JeKO-1 cells
Description: as §1, §2, §3

[1] = read-out: DC50 (BTK degradation), concentration giving 50% reduction of BTK expression level
[2] = read-out: Dmax (BTK degradation)

Sequence of BTK (Q06187 whole entry): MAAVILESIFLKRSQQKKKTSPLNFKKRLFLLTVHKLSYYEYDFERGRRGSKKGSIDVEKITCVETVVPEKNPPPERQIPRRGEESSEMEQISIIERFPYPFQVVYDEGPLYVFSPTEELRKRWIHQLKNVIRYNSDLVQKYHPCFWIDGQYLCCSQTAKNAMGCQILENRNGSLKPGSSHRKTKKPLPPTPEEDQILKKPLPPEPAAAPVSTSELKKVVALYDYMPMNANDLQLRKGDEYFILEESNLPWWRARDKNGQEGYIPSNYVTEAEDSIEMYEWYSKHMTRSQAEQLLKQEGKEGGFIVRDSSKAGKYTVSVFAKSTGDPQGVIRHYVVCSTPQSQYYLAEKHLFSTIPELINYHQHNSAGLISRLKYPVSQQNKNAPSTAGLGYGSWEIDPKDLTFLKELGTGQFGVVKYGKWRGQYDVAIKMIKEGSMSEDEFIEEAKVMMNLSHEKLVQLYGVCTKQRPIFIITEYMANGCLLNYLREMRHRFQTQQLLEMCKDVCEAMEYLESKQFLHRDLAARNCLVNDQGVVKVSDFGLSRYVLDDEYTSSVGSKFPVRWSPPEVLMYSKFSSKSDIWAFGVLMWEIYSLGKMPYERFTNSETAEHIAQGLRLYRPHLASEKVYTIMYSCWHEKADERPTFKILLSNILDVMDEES

SMILES | IC50 (Mino cells) | Dmax (BTK) | DC50 (BTK; BTK degradation) | IC50 (JeKo-1 cells) | DC50 (BTK; [1]) | Dmax (BTK; [2])
Nc1ncnc2c1c(-c1ccc(Oc3ccccc3)cc1)nn2C1CCN(C2CCN(C(=O)N3CCN(CCN4CCN(c5ccc6c(c5)C(=O)N(C5CCC(=O)NC5=O)C6=O)CC4)CC3)CC2)CC1 (centres unmarked) [Compound 245] | 1000 to 10000 nM | > 75% | 10 to 50 nM | 1000 to 10000 nM | – | –
Nc1ncnc2c1c(-c1ccc(Oc3ccccc3)cc1)nn2[C@@H]1CCCN(C2CCN(CC3CCN(c4ccc(N5CCC(=O)NC5=O)cc4)CC3)CC2)C1 [Compound 528, (R)-1-(4-(4-((3-(4-amino-3-(4-phenoxyphenyl)-1H-pyrazolo[3,4-d]pyrimidin-1-yl)-[1,4′-bipiperidin]-1′-yl)methyl)piperidin-1-yl)phenyl)dihydropyrimidine-2,4(1H,3H)-dione] | 1000 to 10000 nM | – | – | 1000 to 10000 nM | 10 to 50 nM | > 75%
NC(=O)c1c(-c2ccc(Oc3ccccc3)cc2)nn2c1NCCC2C1CCN(CC2CCN(C(=O)N3CCN(Cc4ccc5c(c4)C(=O)N(C4CCC(=O)NC4=O)C5=O)CC3)CC2)CC1 (centres unmarked) [Compound 359, 7-(1-((1-(4-((2-(2,6-dioxopiperidin-3-yl)-1,3-dioxoisoindolin-5-yl)methyl)piperazine-1-carbonyl)piperidin-4-yl)methyl)piperidin-4-yl)-2-(4-phenoxyphenyl)-4,5,6,7-tetrahydropyrazolo[1,5-a]pyrimidine-3-carboxamide] | > 10000 nM | > 50% | > 50 nM | > 10000 nM | – | –
NC(=O)c1c(-c2ccc(Oc3ccccc3)cc2)nn2c1NCCC2C1CCN(CCOCCOCCN2CCN(c3ccc4c(c3)C(=O)N(C3CCC(=O)NC3=O)C4=O)CC2)CC1 (centres unmarked) [Compound 269, 7-(1-(2-(2-(2-(4-(2-(2,6-dioxopiperidin-3-yl)-1,3-dioxoisoindolin-5-yl)piperazin-1-yl)ethoxy)ethoxy)ethyl)piperidin-4-yl)-2-(4-phenoxyphenyl)-4,5,6,7-tetrahydropyrazolo[1,5-a]pyrimidine-3-carboxamide] | > 10000 nM | > 90% | 10 to 50 nM | > 10000 nM | – | –
NC1=NC=NC2C1C(c1ccc(Oc3ccccc3)cc1)=NN2C1CCN(C(=O)N2CC(C3CN(c4ccc5c(c4)C(=O)N(C4CCC(=O)NC4=O)C5=O)C3)C2)CC1 (centres unmarked) [Compound 493, 5-(1′-(4-(4-amino-3-(4-phenoxyphenyl)-3a,7a-dihydro-1H-pyrazolo[3,4-d]pyrimidin-1-yl)piperidine-1-carbonyl)-[3,3′-biazetidin]-1-yl)-2-(2,6-dioxopiperidin-3-yl)isoindoline-1,3-dione] | < 1000 nM | – | – | < 1000 nM | 10 to 50 nM | > 90%
Nc1ncnc2c1c(-c1ccc(Oc3ccccc3)cc1)nn2C1CCN(CCN2CC(N3CCN(c4ccc5c(c4)C(=O)N(C4CCC(=O)NC4=O)C5=O)CC3)C2)CC1 (centres unmarked) [Compound 463, 5-(4-(1-(2-(4-(4-amino-3-(4-phenoxyphenyl)-1H-pyrazolo[3,4-d]pyrimidin-1-yl)piperidin-1-yl)ethyl)azetidin-3-yl)piperazin-1-yl)-2-(2,6-dioxopiperidin-3-yl)isoindoline-1,3-dione] | < 1000 nM | – | – | < 1000 nM | 10 to 50 nM | > 90%
Nc1ncnc2c1c(-c1ccc(Oc3ccccc3)cc1)nn2C1CCN(C2CCN(CCN3CCN(c4ccc(NC5CCC(=O)NC5=O)cc4)CC3)CC2)CC1 (centres unmarked) [Compound 581, 3-((4-(4-(2-(4-(4-amino-3-(4-phenoxyphenyl)-1H-pyrazolo[3,4-d]pyrimidin-1-yl)-[1,4′-bipiperidin]-1′-yl)ethyl)piperazin-1-yl)phenyl)amino)piperidine-2,6-dione] | < 1000 nM | – | – | < 1000 nM | < 10 nM | > 90%
Nc1ncnc2c1c(-c1ccc(Oc3ccccc3)cc1)nn2C1CCN(CC2CCN(CCN3CCC(c4ccc5c(c4)C(=O)N(C4CCC(=O)NC4=O)C5=O)CC3)CC2)CC1 (centres unmarked) [Compound 205, 5-(1-(2-(4-((4-(4-amino-3-(4-phenoxyphenyl)-1H-pyrazolo[3,4-d]pyrimidin-1-yl)piperidin-1-yl)methyl)piperidin-1-yl)ethyl)piperidin-4-yl)-2-(2,6-dioxopiperidin-3-yl)isoindoline-1,3-dione] | < 1000 nM | > 90% | 10 to 50 nM | 1000 to 10000 nM | – | –
Nc1ncnc2c1c(-c1ccc(Oc3ccccc3)cc1)nn2C1CCN(CCN2CCN(CCSc3ccc4c(c3)C(=O)N(C3CCC(=O)NC3=O)C4=O)CC2)CC1 (centres unmarked) [Compound 465, 5-((2-(4-(2-(4-(4-amino-3-(4-phenoxyphenyl)-1H-pyrazolo(3,4-d)pyrimidin-1-yl)piperidin-1-yl)ethyl)piperazin-1-yl)ethyl)thio)-2-(2,6-dioxopiperidin-3-yl)isoindoline-1,3-dione] | 1000 to 10000 nM | – | – | 1000 to 10000 nM | 10 to 50 nM | > 90%
NC(=O)c1c(-c2ccc(Oc3ccccc3)cc2)nn2c1NCC[C@H]2C1CCN(CC2CCN(CCC3CCN(c4ccc5c(c4)C(=O)N(C4CCC(=O)NC4=O)C5=O)CC3)CC2)CC1 (stereo partly drawn) [Compound 333, (7S)-7-(1-((1-(2-(1-(2-(2,6-dioxopiperidin-3-yl)-1,3-dioxoisoindolin-5-yl)piperidin-4-yl)ethyl)piperidin-4-yl)methyl)piperidin-4-yl)-2-(4-phenoxyphenyl)-4,5,6,7-tetrahydropyrazolo[1,5-a]pyrimidine-3-carboxamide] | 1000 to 10000 nM | > 75% | 10 to 50 nM | > 10000 nM | – | –
NC(=O)c1c(-c2ccc(Oc3ccccc3)cc2)nn2c1NCC[C@H]2C1CCN(C2CCN(CCN3CCN(c4ccc5c(c4)CN(C4CCC(=O)NC4=O)C5=O)CC3)CC2)CC1 (stereo partly drawn) [Compound 324, (7S)-7-(1′-(2-(4-(2-(2,6-dioxopiperidin-3-yl)-1-oxoisoindolin-5-yl)piperazin-1-yl)ethyl)-[1,4′-bipiperidin]-4-yl)-2-(4-phenoxyphenyl)-4,5,6,7-tetrahydropyrazolo[1,5-a]pyrimidine-3-carboxamide] | 1000 to 10000 nM | > 75% | > 50 nM | 1000 to 10000 nM | – | –
Nc1ncnc2c1c(-c1ccc(Oc3ccccc3)cc1)nn2C1CCN(CC2CCN(CC3CCN(c4ccc5c(c4)C(=O)N(C4CCC(=O)NC4=O)C5=O)CC3)CC2)CC1 (centres unmarked) [Compound 199, 5-(4-((4-((4-(4-amino-3-(4-phenoxyphenyl)-1H-pyrazolo(3,4-d)pyrimidin-1-yl)piperidin-1-yl)methyl)piperidin-1-yl)methyl)piperidin-1-yl)-2-(2,6-dioxopiperidin-3-yl)isoindoline-1,3-dione] | < 1000 nM | > 90% | 10 to 50 nM | 1000 to 10000 nM | – | –
Nc1ncnc2c1c(-c1ccc(Oc3ccccc3)cc1)nn2C1CCN(C2CCN(C(=O)N3CCC(CN4CCN(c5ccc6c(c5)C(=O)N(C5CCC(=O)NC5=O)C6=O)CC4)CC3)CC2)CC1 (centres unmarked) [Compound 239, 5-(4-((1-(4-(4-amino-3-(4-phenoxyphenyl)-1H-pyrazolo[3,4-d]pyrimidin-1-yl)-[1,4′-bipiperidine]-1′-carbonyl)piperidin-4-yl)methyl)piperazin-1-yl)-2-(2,6-dioxopiperidin-3-yl)isoindoline-1,3-dione] | 1000 to 10000 nM | > 90% | 10 to 50 nM | < 1000 nM | – | –
NC(=O)c1c(-c2ccc(Oc3ccccc3)cc2)nn2c1NCCC2C1CCN(C2CCN(C(=O)N3CCN(CC4CCN(c5ccc6c(c5)CN(C5CCC(=O)NC5=O)C6=O)CC4)CC3)CC2)CC1 (centres unmarked) [Compound 352, 7-(1′-(4-((1-(2-(2,6-dioxopiperidin-3-yl)-1-oxoisoindolin-5-yl)piperidin-4-yl)methyl)piperazine-1-carbonyl)-[1,4′-bipiperidin]-4-yl)-2-(4-phenoxyphenyl)-4,5,6,7-tetrahydropyrazolo[1,5-a]pyrimidine-3-carboxamide] | < 1000 nM | > 90% | < 10 nM | 1000 to 10000 nM | – | –
Nc1ncnc2c1c(-c1ccc(Oc3ccccc3)cc1)nn2C1CCN(CCN2CCC(CSc3ccc4c(c3)CN(C3CCC(=O)NC3=O)C4=O)CC2)CC1 (centres unmarked) [Compound 470, 3-(5-(((1-(2-(4-(4-amino-3-(4-phenoxyphenyl)-1H-pyrazolo[3,4-d]pyrimidin-1-yl)piperidin-1-yl)ethyl)piperidin-4-yl)methyl)thio)-1-oxoisoindolin-2-yl)piperidine-2,6-dione] | < 1000 nM | – | – | 1000 to 10000 nM | < 10 nM | > 90%
NC(=O)c1c(-c2ccc(Oc3ccccc3)cc2)nn2c1NCC[C@H]2C1CCN(C2CCN(C(=O)N3CCC(N4CCC(c5ccc6c(c5)CN(C5CCC(=O)NC5=O)C6=O)CC4)CC3)CC2)CC1 (stereo partly drawn) [Compound 388, (7S)-7-(1′-(4-(2-(2,6-dioxopiperidin-3-yl)-1-oxoisoindolin-5-yl)-[1,4′-bipiperidine]-1′-carbonyl)-[1,4′-bipiperidin]-4-yl)-2-(4-phenoxyphenyl)-4,5,6,7-tetrahydropyrazolo[1,5-a]pyrimidine-3-carboxamide] | < 1000 nM | > 90% | 10 to 50 nM | 1000 to 10000 nM | – | –
Nc1ncnc2c1c(-c1ccc(Oc3ccccc3)cc1)nn2C1CCC(CN2CC(N3CCN(c4ccc5c(c4)CN(C4CCC(=O)NC4=O)C5=O)CC3)C2)CC1 (centres unmarked) [Compound 533, 3-(5-(4-(1-((4-(4-amino-3-(4-phenoxyphenyl)-1H-pyrazolo[3,4-d]pyrimidin-1-yl)cyclohexyl)methyl)azetidin-3-yl)piperazin-1-yl)-1-oxoisoindolin-2-yl)piperidine-2,6-dione] | < 1000 nM | – | – | < 1000 nM | < 10 nM | > 90%

Reference: patent US12139492B2 (Endotarget Inc., priority 2021, dated 2024)
